# Experimental data as given in US20250026848A1, “IDENTIFICATION OF PATHOGENIC IMMUNE CELL SUBSETS IN CHECKPOINT INHIBITOR-INDUCED MYOCARDITIS” (U.S. GOVERNMENT AS REPRESENTED BY THE DEPARTMENT OF …, priority 2021, published 2025).
# Test system: ICI myocarditis
# Test: Longitudinal follow-up of one ICI myocarditis patient (MCE1) treated with glucocorticoids: cardiac biomarker troponin I
# Format: in vivo, human
# Settings: one patient with MRI-confirmed ICI myocarditis; 60 mg/day from first day of diagnosis, four-week steroid taper
# Method: In order to evaluate the time evolution of clonally-expanded T-cells in ICI myocarditis, we longitudinally analyzed PBMCs from one patient with MRI-confirmed myocarditis at early (t=0 days) and late (t=65 days) timepoints (FIG. 5A). This patient received glucocorticoids (60 mg/day of prednisone) for treatment of their myocarditis on the first day of their diagnosis (after blood collection) and underwent a successful four-week steroid taper with resolution of their cardiac biomarkers (troponin I, measured in ng/ml) by day 25. […] Due to the availability of early and late myocarditis blood samples, our study also provides new insight into the time-course of cellular and molecular changes that occur throughout the onset and resolution of ICI myocarditis. ICI myocarditis has a notoriously unpredictable time course and can occur with a median onset of 17-34 days after initiation of ICI therapy, although cases have been identified anywhere from 1 to 240 days from start of therapy (34,38-40). In our patient, we were able to collect blood at the time of diagnosis of the positive troponin I of 10 ng/ml (t=0) and track to day 65 after a full four-week course of glucocorticoids and resolution of clinical signs of myocarditis. […]
compound,measurement,value
C[C@]12C=CC(=O)C=C1CC[C@@H]1[C@@H]2C(=O)C[C@@]2(C)[C@H]1CC[C@]2(O)C(=O)CO [prednisone],resolution of cardiac biomarkers (troponin I),≤ 25 days
